The target of one data set is human PAI-1 (Homo sapiens, UniProt P05121). Description: Assay for determining the IC50 of inhibition of PAI-1 (active PAI-1 bound to tPA-coated plate, 33B8 antibody detection). It counts as biochemical. The following applies: human PAI-1 50 ng/ml, pH 7.5. As for the experimental part: Assay for determining the IC50 of inhibition of PAI-1. This assay is based upon the non-SDS dissociable interaction between tPA and active PAI-1. Assay plates are initially coated with human tPA (10 μg/ml). Test compounds are dissolved in DMSO at 10 mM, then diluted with physiologic buffer (pH 7.5) to a final concentration of 1-50 μM. The test compounds are incubated with human PAI-1 (50 ng/ml) for 15 minutes at room temperature. The tPA-coated plate is washed with a solution of 0.05% Tween 20 and 0.1% BSA, then the plate is blocked with a solution of 3% BSA. An aliquot of the test compound/PAI-1 solution is then added to the tPA-coated plate, incubated at room temperature for 1 hour, and washed. Active PAI-1 bound to the plate is assessed by adding an aliquot of a 1:1000 dilution of the 33B8 monoclonal antibody against human PAI-1, and incubating the plate at room temperature for 1 hour (Molecular Innovations, Royal Oak, Mich.). The plate is again washed, and a solution of goat anti-mouse IgG-alkaline phosphatase conjugate is added at a 1:50,000 dilution in goat serum. The plate is incubated 30 minutes at room temperature, washed, and a solution of alkaline phosphatase substrate is added. The plate is incubated 45 minutes at room temperature, and color development is determined at OD405 nm. The quantitation of active PAI-1 bound to tPA at varying concentrations of the test compound is used to determine the IC50. Results are analyzed using a logarithmic best-fit equation. The assay sensitivity is 5 ng/ml of human PAI-1 as determined from a standard curve ranging from 0-100 ng/ml.

Experimental findings from patent US7420083B2, “Substituted aryloximes” (Wyeth, priority 2003, dated 2008) are described below.

Structures are written as SMILES.

Chain of human PAI-1 (P05121 24-402): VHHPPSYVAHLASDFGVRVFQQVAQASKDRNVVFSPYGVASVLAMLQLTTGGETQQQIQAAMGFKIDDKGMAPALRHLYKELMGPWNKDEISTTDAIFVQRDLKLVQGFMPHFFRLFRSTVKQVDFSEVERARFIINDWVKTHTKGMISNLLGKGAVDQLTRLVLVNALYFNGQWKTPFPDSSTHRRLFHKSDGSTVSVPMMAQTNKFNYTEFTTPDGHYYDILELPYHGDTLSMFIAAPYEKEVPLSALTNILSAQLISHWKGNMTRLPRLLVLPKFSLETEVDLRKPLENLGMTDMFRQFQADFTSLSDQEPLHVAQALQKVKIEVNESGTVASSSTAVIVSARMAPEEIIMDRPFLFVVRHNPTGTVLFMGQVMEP

For `O=C(O)c1ccc(OCCCO/N=C/c2ccc(C(F)(F)F)cc2)cc1NC(=O)c1ccccc1C(F)(F)F` [Compound 25, 2-{[2-(Trifluoromethyl)benzoyl]amino}-4-{3-[({(1E)-[4-(trifluoromethyl)phenyl]methylidene}amino)oxy]propoxy}benzoic acid], the melting point lay within 147.2 to 147.9 °C. Inhibition at human PAI-1 was half-maximal at 26.8 µM (IC50).

As to `O=C(Nc1cc(OCCCO/N=C/c2ccc(C(F)(F)F)cc2)ccc1C(=O)O)c1cc(C(F)(F)F)cc(C(F)(F)F)c1` [Compound 32, 2-{[3,5-Bis(trifluoromethyl)benzoyl]amino}-4-{3-[({(1E)-[4-(trifluoromethyl)phenyl]methylidene}amino)oxy]propoxy}benzoic Acid], the melting point was 218 to 219 °C (dec.). On human PAI-1, this compound returned an IC50 of 15.8 µM.

`C/C(=N\OCCOc1ccc(C(=O)O)c(OC(=O)c2ccc(-c3ccccc3)cc2)c1)c1ccccc1` [Compound 15, 2-[([1,1′-Biphenyl]-4-ylcarbonyl)oxy]-4-[2-({[(E)-1-phenylethylidene]amino}oxy)ethoxy]benzoic Acid]: the melting point was 157.5 to 159.1 °C. For the same compound, the IC50 against human PAI-1 was found to be 18.9 µM.
